Usually IC50 stands for the concentration that gives 50% inhibition. The term EC50 denotes the midpoint of the concentration-response curve.

Assay [1] addresses T1, PTPN2 (Homo sapiens (Human), UniProt P17706). Kind of assay: PhosphoSens assay (PTPN2 BCHEM). The following applies: substrate AQT0264 20 μM, PTPN2 150 pM. It counts as biochemical. Here is the method:
A PhosphoSens® kinase assay was performed as described by the vendor (AssayQuant Technologies, Marlborough, MA). Briefly, 1000× solutions of compounds were prepared in DMSO via serial dilution of the 10 mM DMSO stocks using 3-fold intervals in a 384-well reagent plate. 50 nL of the compound dilution series was then added to the corresponding wells of a 384-well assay plate. […] Finally, […] of 5× PTPN2 enzyme stock was added to each well of the assay plate for a final enzyme concentration of 150 pM. Reaction progress curves were collected by sampling fluorescence intensity at the excitation wavelength 360 nm (λex360) and emission wavelength 480 nm (λem480) every 71 seconds for one hour using a Synergy H4 plate reader (BioTek Instruments/Agilent Technologies, Winooski, VT) at room temperature.
Target sequence in this assay (P17706 whole entry): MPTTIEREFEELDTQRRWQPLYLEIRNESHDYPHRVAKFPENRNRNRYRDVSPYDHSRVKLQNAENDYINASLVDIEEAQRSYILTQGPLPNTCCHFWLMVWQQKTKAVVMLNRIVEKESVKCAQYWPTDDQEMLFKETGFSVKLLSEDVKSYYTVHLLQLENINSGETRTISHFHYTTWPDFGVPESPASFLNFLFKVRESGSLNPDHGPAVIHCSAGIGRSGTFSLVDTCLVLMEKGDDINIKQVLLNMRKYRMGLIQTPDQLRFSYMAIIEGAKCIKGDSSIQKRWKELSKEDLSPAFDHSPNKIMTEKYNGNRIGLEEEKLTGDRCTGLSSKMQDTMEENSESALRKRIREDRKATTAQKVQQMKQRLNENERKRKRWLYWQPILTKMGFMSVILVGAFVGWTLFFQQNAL

A further assay has as its system B16-F10 cells. In words: Cell proliferation assay (CellTiter-Glo) in B16-F10 cells with IFN-gamma. The class given is cell-based. The following applies: 120 h, mouse IFN-gamma 10 ng/mL, read-out: PTPN2 Prolif 5d B16F10 EC50.
Assay [2] has as its system phosphorylated STAT1 in B16-F10 cells. Kind of assay: Phospho-STAT1 (Tyr701) HTRF assay in B16-F10 cells with IFN-gamma. The class given is cell-based. The following applies: mouse IFN-gamma 100 ng/mL, 1 hour, read-out: pSTAT1 HTRF B16F10 EC50. Here is the method: B16-F10 cells (ATCC, Manassas, VA, #CRL-6475) were cultured in DMEM growth medium (ThermoFisher Scientific, Waltham, MA, #11995-040) supplemented with 10% heat-inactivated FBS (ThermoFisher Scientific, #16140-071) and 1% pen/strep (ThermoFisher Scientific, #15140-122). The cells were seeded into a white opaque 384-well tissue culture treated microplate (PerkinElmer, Waltham, MA, #6007688) at a density of 10,000 cells/well in 20 uL total volume and incubated overnight at 37 C and 5% CO2. 30 nL of compounds dissolved in DMSO were then transferred from a source plate into target wells with the Echo650 acoustic liquid handler (Beckman Coulter, Indianapolis, IN). Negative control wells received 30 nL of DMSO only (0.15% final concentration). Plates were returned to the incubator for 1 hour and then cells were treated with either 5 uL of growth medium or 5 uL of growth medium containing 500 ng/mL of recombinant mouse IFN-gamma protein (R&D Systems, Minneapolis, MN, #485-MI/CF, 100 ng/mL final concentration) using the Assist automated pipetting platform (INTEGRA Biosciences, Hudson, NH). Plates were incubated at 37 C for 1 hour and assayed for phosphorylated STAT1 protein levels with the phospho-STAT1 (Tyr701) HTRF kit (Cisbio, Bedford, MA, #63ADK026PEH) according to the manufacturer's instructions.
Background: TR-FRET usually uses a lanthanide donor and a delayed reading to cut background.

Assay [3] has as its target T1, PTPN2. Kind of assay: Phosphatase activity assay using DiFMUP as substrate. The class given is biochemical. The following applies: PTPN2 0.15 nM, 10 mM DTT. The protocol:
The PTPN2 biochemical assay was performed as follows, a 5× stock solution of human PTPN2 (SRP5075, MilliporeSigma, Burlington, MA) and a 1.25× stock solution of DiFMUP (D6567, ThermoFisher Scientific, Waltham, MA), were prepared in 1× reaction buffer consisting of 50 mM HEPES, pH 7.4, 1 mM EDTA, 150 mM NaCl, 0.2 mg/mL BSA, 100 U/mL catalase and 10 mM DTT. […] of the DiFMUP substrate solution, for a final concentration of […] DiFMUP substrate, was added to a Corning 3574 384-well, white, non-binding surface microtiter plate containing […] of serially diluted test compounds prepared in DMSO. The reactions were started with the addition of […] of the enzyme solution, for a final PTPN2 concentration of 0.15 nM, and monitored every 105 seconds for 60 minutes at λEX 360/λEM 460 in a BioTek Synergy HTX plate reader (Agilent Technologies, Santa Clara, CA) at room temperature. The initial linear portions of the progress curves were fit according to a linear equation to yield the slopes and converted to % inhibition based on a value of 100% activity for the no inhibitor treated control. IC50 values of each compound were obtained by fitting the % inhibition-compound concentration curves using Dotmatics software (Dotmatics, Bishops Stortford, Hertfordshire, England),
Target sequence in this assay (P17706 other isoform, or with tags, fused parts or gaps isoform P17706-2): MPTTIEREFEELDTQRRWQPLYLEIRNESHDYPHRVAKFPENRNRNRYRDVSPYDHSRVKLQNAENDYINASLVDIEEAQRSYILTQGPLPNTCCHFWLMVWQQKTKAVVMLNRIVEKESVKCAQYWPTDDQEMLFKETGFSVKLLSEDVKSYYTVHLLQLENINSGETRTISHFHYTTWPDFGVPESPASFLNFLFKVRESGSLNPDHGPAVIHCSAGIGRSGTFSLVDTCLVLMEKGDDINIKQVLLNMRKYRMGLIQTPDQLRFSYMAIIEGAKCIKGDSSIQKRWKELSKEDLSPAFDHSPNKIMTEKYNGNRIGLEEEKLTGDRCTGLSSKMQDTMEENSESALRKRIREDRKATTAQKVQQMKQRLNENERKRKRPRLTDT

Bounds are passed on as bounds.

For `Cc1ccnc(NCc2cc(O)c(N3CC(=O)NS3(=O)=O)c(F)c2)c1C` [EXAMPLE 25, 5-[4-[[(3,4-dimethyl-2-pyridyl)amino]methyl]-2-fluoro-6-hydroxy-phenyl]-1,1-dioxo-1,2,5-thiadiazolidin-3-one], the results for the half-maximal inhibitory concentration (IC50) at PTPN2 [1] and on PTPN2 [3] were 90 nM and 130 nM, respectively. The values for the EC50 (with B16-F10 cells; in assay [2]) were 7670 nM and 10200 nM, respectively.
For `COc1cnc(NCc2cc(O)c(N3CC(=O)NS3(=O)=O)c(F)c2)cc1OC` [EXAMPLE 26, 5-[4-[[(4,5-dimethoxy-2-pyridyl)amino]methyl]-2-fluoro-6-hydroxy-phenyl]-1,1-dioxo-1,2,5-thiadiazolidin-3-one], the IC50 on PTPN2 [1] and at PTPN2 [3] was 10 nM in each case. Further, the EC50 in the assay with B16-F10 cells worked out at 740 nM; in assay [2], 340 nM.
In the case of `Cc1cnc(NCc2cc(O)c(N3CC(=O)NS3(=O)=O)c(F)c2)cc1C` [EXAMPLE 28, 5-[4-[[(4,5-dimethyl-2-pyridyl)amino]methyl]-2-fluoro-6-hydroxy-phenyl]-1,1-dioxo-1,2,5-thiadiazolidin-3-one], the half-inhibitory concentration (IC50) at PTPN2 [1] amounted to 1 nM; at PTPN2 [3], 2 nM. Also, the EC50 worked out at 280 nM with B16-F10 cells and 130 nM in assay [2].
On the same counts, the results for `COc1cnc(NCc2cc(O)c(N3CC(=O)NS3(=O)=O)c(F)c2)c(OC)c1` [EXAMPLE 30, 5-[4-[[(3,5-dimethoxy-2-pyridyl)amino]methyl]-2-fluoro-6-hydroxy-phenyl]-1,1-dioxo-1,2,5-thiadiazolidin-3-one] are 20 nM, 140 nM, 1720 nM and 1780 nM.
As for `Cc1cc(NCc2cc(O)c(N3CC(=O)NS3(=O)=O)c(F)c2)ncc1F` [EXAMPLE 31, 5-[2-fluoro-4-[[(5-fluoro-4-methyl-2-pyridyl)amino]methyl]-6-hydroxy-phenyl]-1,1-dioxo-1,2,5-thiadiazolidin-3-one], the IC50 on PTPN2 [1] was determined as 20 nM; at PTPN2 [3], 50 nM. Moreover, the figures for the 50% effective concentration (EC50) (in the assay on B16-F10 cells; in assay [2]) were 1530 nM and 1190 nM, respectively.
In the same order, the values of `Cc1cc(NCc2cc(O)c(N3CC(=O)NS3(=O)=O)c(F)c2)ncc1C#N` [EXAMPLE 32, 6-[[3-fluoro-5-hydroxy-4-(1,1,4-trioxo-1,2,5-thiadiazolidin-2-yl)phenyl]methylamino]-4-methyl-pyridine-3-carbonitrile] are 30 nM, 50 nM, 4550 nM and 2340 nM.
On the same counts, the results for `Cc1cnc(NCc2cc(O)c(N3CC(=O)NS3(=O)=O)c(F)c2)cc1F` [EXAMPLE 33, 5-[2-fluoro-4-[[(4-fluoro-5-methyl-2-pyridyl)amino]methyl]-6-hydroxy-phenyl]-1,1-dioxo-1,2,5-thiadiazolidin-3-one] are 20 nM, 40 nM, 970 nM and 510 nM.
In the case of `COc1cccnc1NCc1cc(O)c(N2CC(=O)NS2(=O)=O)c(F)c1` [EXAMPLE 34, 5-[2-fluoro-6-hydroxy-4-[[(3-methoxy-2-pyridyl)amino]methyl]phenyl]-1,1-dioxo-1,2,5-thiadiazolidin-3-one], the results for the IC50 on PTPN2 [1] and at PTPN2 [3] were more than 10000 nM and 10000 nM, respectively. For the same molecule, the concentration for a half-maximal effect (EC50) (in the assay with B16-F10 cells; in assay [2]) was more than 15000 nM each time.
Regarding `COc1cccc(NCc2cc(O)c(N3CC(=O)NS3(=O)=O)c(F)c2)n1` [EXAMPLE 35, 5-[2-fluoro-6-hydroxy-4-[[(6-methoxy-2-pyridyl)amino]methyl]phenyl]-1,1-dioxo-1,2,5-thiadiazolidin-3-one], the IC50 on PTPN2 [1] stood at 80 nM; on PTPN2 [3], 20 nM. The figures for the concentration giving a half-maximal response (EC50) (with B16-F10 cells; in assay [2]) were 8660 nM and 11600 nM, respectively.
Regarding `COc1ccc(NCc2cc(O)c(N3CC(=O)NS3(=O)=O)c(F)c2)nc1OC` [EXAMPLE 36, 5-[4-[[(5,6-dimethoxy-2-pyridyl)amino]methyl]-2-fluoro-6-hydroxy-phenyl]-1,1-dioxo-1,2,5-thiadiazolidin-3-one], the half-inhibitory concentration (IC50) was 20 nM on PTPN2 [1] and 10 nM on PTPN2 [3]. Besides, the half-maximal effective concentration (EC50) in the assay with B16-F10 cells is 2180 nM; in assay [2] it was 640 nM.
On the same counts, the results for `O=C1CN(c2c(O)cc(CNc3ccccn3)cc2F)S(=O)(=O)N1` [EXAMPLE 37, 5-[2-fluoro-6-hydroxy-4-[(2-pyridylamino)methyl]phenyl]-1,1-dioxo-1,2,5-thiadiazolidin-3-one] are 30 nM, 70 nM, 1260 nM and 450 nM.
In the same order, the values of `COc1ccc(NCc2cc(O)c(N3CC(=O)NS3(=O)=O)c(F)c2)nc1` [EXAMPLE 38, 5-[2-fluoro-6-hydroxy-4-[[(5-methoxy-2-pyridyl)amino]methyl]phenyl]-1,1-dioxo-1,2,5-thiadiazolidin-3-one] are 10 nM, 60 nM, 850 nM and 540 nM.
With `CC(C)c1ccc(NCc2cc(O)c(N3CC(=O)NS3(=O)=O)c(F)c2)nc1` [EXAMPLE 45, 5-[2-fluoro-6-hydroxy-4-[[(5-isopropyl-2-pyridyl)amino]methyl]phenyl]-1,1-dioxo-1,2,5-thiadiazolidin-3-one], the 50% inhibitory concentration (IC50) at PTPN2 [1] was found to be 7 nM; on PTPN2 [3] it was 60 nM. In addition, the concentration for a half-maximal effect (EC50) in the assay with B16-F10 cells worked out at 1770 nM; in assay [2], 1490 nM.
On the same counts, the results for `O=C1CN(c2c(O)cc(CNc3cc(OCc4ccccc4)ccn3)cc2F)S(=O)(=O)N1` [EXAMPLE 46, 5-[4-[[(4-benzyloxy-2-pyridyl)amino]methyl]-2-fluoro-6-hydroxy-phenyl]-1,1-dioxo-1,2,5-thiadiazolidin-3-one] are 6 nM, 10 nM, 3510 nM and 4100 nM.
As to `O=C1CN(c2c(O)cc(CNc3ccc(OCc4ccccc4)cn3)cc2F)S(=O)(=O)N1` [EXAMPLE 47, 5-[4-[[(5-benzyloxy-2-pyridyl)amino]methyl]-2-fluoro-6-hydroxy-phenyl]-1,1-dioxo-1,2,5-thiadiazolidin-3-one], the half-inhibitory concentration (IC50) on PTPN2 [1] turned out to be 40 nM; on PTPN2 [3] it was 1460 nM. The values for the 50% effective concentration (EC50) (in the assay with B16-F10 cells; in assay [2]) were 13300 nM and 6360 nM, respectively.
For the molecule `O=C1CN(c2c(O)cc(CN(c3ccc(C(F)(F)F)cn3)C3CC3)cc2F)S(=O)(=O)N1` [EXAMPLE 50, 5-(4-((cyclopropyl(5-(trifluoromethyl)pyridin-2-yl)amino)methyl)-2-fluoro-6-hydroxyphenyl)-1,2,5-thiadiazolidin-3-one 1,1-dioxide], the IC50 came out at 816 nM at PTPN2 [1] and 3240 nM on PTPN2 [3]. Besides, the half-maximal effective concentration (EC50) (in the assay on B16-F10 cells; in assay [2]) was more than 15000 nM each time.
